Measured values published in patent US7037489B2, “Skin external agents and drugs” (Kanebo Cosmetics, Inc., priority 1999, dated 2006).
Counter-ions that a name gives are not always drawn.

What was measured:
[1] = tested on: skin of Hartley strain guinea pig; experiment: Test 2 safety (sensitization) maximization test; type: in vivo; details: for Positivity: 3% induction, examined after 48 hours; for sensitizing potential: in words
Description: Safety (sensitization) was evaluated by a maximization test. An area of 4×6 cm^2 of skin on the scapula of a Hartley strain guinea pig (female) weighing 350 to 400 g was shaved and given intradermal injections with each three injections in two lines according to the following procedures: • (1)each 0.05 mL of Freunds' Complete Adjuvant (hereinafter simply called FCA) was intradermally injected at each one spot in the right and left sites. • (2) each 0.05 mL of a 3% fumaric acid diester derivative solution in ethanol of as a test sample was intradermally injected at another each one spot in the right and left sites. • (3) to a 6% fumaric acid diester derivative solution in FCA as a test sample, the same amount of sterilized water was added and resultant emulsified solution was intradermally injected at a right side and a left side sites in an amount of 0.05 mL.
At one week after the aforementioned procedures, the skin of the same sites was shaved and 10% of sodium lauryl sulfate in vaseline was applied to cause light inflammation. After 24 hours from the application, 0.2 mL of a 3% fumaric diester derivative solution in ethanol as a test sample, which was applied on a piece of gauze, was patched close on the same sites for 48 hours. On the 21st day after the intradermal injection, the abdominal area was shaved, to which a solution of a fumaric acid diester derivative in ethanolas a test sample, which was applied in a piece of gauze, was patched close for 24 hours. The symptoms in the skin were visually examined according to the following criteria after 48 hours.

[2] = tested on: dorsal skin of hairless mice; experiment: Test Example 9 depression of UV-induced epidermal hyperproliferation; type: in vivo; details: 0.5% in 50% ethanol, 4 weeks pre-application, UVB 0.15 J/cm^2, 4th day after the irradiation; mean values
Description: The inhibition of epidermal hyperproliferation was investigated by the following test method in which the present fumarate was applied to the skin where epidermal hyperproliferation had been induced by UV irradiation Hairless mice of 10 weeks old at the beginning of the test were used with 5 mice per group. […] The animals were slaughtered on the 4th day after the irradiation and skin section were made. From the section, tissue section samples were prepared by HE staining. The samples prepared were photographed using an light microscope. In the microscopic photographs, the thickness of the epidermis was measured. Using the epidermis thickness at the beginning of the test as a standard, the mean values were compared between the control group and the treated groups.

[3] = tested on: G3PDH mRNA; experiment: Test Example 6 G3PDH mRNA in keratinocytes; type: cell-based; details: 24 hours, human keratinocytes
Description: (§1) The amount of expression of amphiregulin in the keratinocytes was determined by the following test method. Cultured keratinocytes of human epidermis origin (ex Kurabo Corporation) were used. Keratinocyte suspension was adjusted to a concentration of 150×10^4 units/mL in an MCDB153 culture medium supplemented with BPE (bovine pituitary extract), insulin, ethanolamine, phosphoethanolamine, and hydrocortisone as growth promotors. Four milliliters of the cell suspension was inoculated to a 60 mm plate (ex Falcon Corporation). […] This plate was subjected to static culturing at 37° C. for 24 hours under an atmosphere consisting of 95% (v/v) air and 5% (v/v) carbon dioxide gas. Using a QIAGEN™ RNA kit, whole mRNA was extracted. […] The amount of each mRNA per total in the absence of the fumarate was measured as the control. The amount of mRNA in the presence of the fumarate was expressed in % relative to those of the control. (2) Results

[4] = tested on: G3PDH mRNA; experiment: Test Example 4 G3PDH mRNA in keratinocytes (Northern blotting); type: cell-based; details: 24 hours, human keratinocytes
Excerpt: (§2) The HB-EGF expression rates were investigated by the following test methods where the compounds of the present invention were applied on the keratinocytes. Cultured keratinocytes of human epidermis origin, commercially available from Kurabo Corporation, were used. Keratinocyte susupension was adjusted to a concentration of 400×10^4 units/mL on an MCDB153 culture medium supplemented with BPE (bovine pituitary extract), insulin, ethanolamine, phosphoethanolamine, and hydrocortisone as growth promotors. Four milliliters of the cell suspension was inoculated to a 60 mm plate (ex Falcon Corporation). […] This plate was subjected to static culturing at 37° C. for 24 hours under an atmosphere consisting of 95% (v/v) air and 5% (v/v) carbon dioxide gas. Using a QIAGEN™ RNA kit, whole mRNA was extracted. […] The amount of each mRNA per total in the absence of the fumarate was measured as the control. The amount of mRNA in the presence of the fumarate was expressed in % relative to those of the control.

[5] = tested on: dorsal skin of hairless mice; experiment: Test Example 8 inhibition of dry skin induced by retinoic acid (TEWL); type: in vivo
Description: The effect of inhibiting dry skin was investigated by the following test method in which the present fumarate was applied to the dry skin induced by retinoic acid. Hairless mice of 10 weeks old at the beginning of the test were used with five mice per group. […] Subsequently, 0.05 mL of a 0.05% retinoic acid solution in 50% ethanol aqueous solution was applied once a day for 4 days. During these 4 days, retinoic acid was applied in the morning, and, some hours later in the afternoon, the sample was applied. […] In Comparative Example 5, a control sample comprising the base alone was used instead of the sample. In Comparative Example 6, the base was always applied. The TEWL values after the application of the samples are as shown below.

[6] = tested on: hairless mouse dorsal skin (epidermal permeability barrier function disrupted by UVB); experiment: Test 1 epidermal permeability barrier function amelioration test (TEWL after UVB); type: in vivo, hairless mice (Hos: Hr-1); details: for TEWL change rate 3rd day / TEWL change rate 4th day: mean values
Description: An effect of improving epidermal permeability barrier function by applying the agents on the skin of which epidermal permeability barrier function has been disrupted was evaluated by the following test method. Male hairless mice (Hos: Hr-1) of 10 weeks old at the beginning of the test were used with each 5 mice per group. Transepidermal water loss (TEWL) was measured as follows using a continuous perspiration measurement device, Hydrograph AMU-100 (ex K & S Co., Ltd.). […] The amount of water vapor in the nitrogen gas was measured before the gas was fed to the capsule and after it was recovered from the capsule. […] The TEWL of the hairless mouse dorsal skin was first measured at the beginning of the test. Subsequently, 0.05 mL of each sample was applied on an area of approximately 2.5 cm diameter in the dorsal skin of the hairless mice once a day from Monday to Friday (pre-application). Then, on the third day from the last day of the pre-application, the skin was irradiated once with ultraviolet B ray (UVB) at a dose of 0.15 J/cm^2. […] TEWL changes with the degree of disruption of the epidermal permeability barrier function. A higher value of TEWL change rate implies a greater degree of disruption of the epidermal permeability barrier function. In the case of the application of the base alone, disruption in the epidermal permeability barrier function by UVB was similar to that in the case of non-application.

[7] = tested on: amphiregulin mRNA; experiment: Test Example 6 inhibition of the expression of amphiregulin in keratinocytes; type: cell-based; details: 24 hours, human keratinocytes
Description: as §1

[8] = tested on: HB-EGF mRNA; experiment: Test Example 4 HB-EGF expression rate in keratinocytes (Northern blotting); type: cell-based, human; details: for Amount of mRNA, % relative to the control, HB-EGF: 24 hours, human keratinocytes
Excerpt: as §2

[9] = tested on: G3PDH mRNA; experiment: Test Example 7 G3PDH mRNA in keratinocytes with retinoic acid; type: cell-based, human; details: retinoic acid alone 1 μmol/L, 24 hours
Description: (§3) The amount of amphireglurin expression in the presence of retinoic acid in the keratinocytes was determined by the following method.
(§4) Cultured keratinocytes of human epidermis origin (ex Kurabo Corporation) were used.
(§5) Keratinocyte suspensions was adjusted to a concentration of 400×10^4 units/mL in an MCDB153 culture medium supplemented with BPE (bovine pituitary extract), insulin, ethanolamine, phosphoethanolamine, and hydrocortisone as growth promotors. Four milliliters of the cell suspension was inoculated to a 60 mm plate (ex Falcon Corporation). Under an atmosphere of 95% (v/v) air and 5% (v/v) carbon dioxide gas, a confluent state was achieved by static culturing at 37° C. for 3 days, while refreshing the culture every other day.
(§6) After removing the culture medium supernatant by suction, the culture medium was replaced with an MCDB 153 culture medium (containing insulin) to which bis(diethylene glycol monoethyl ether) fumarate at a final concentration of 300 μmol/L or dimethyl fumarate at 70 μmol/L, and optionally retinoic acid at 1 μmol/L had been added. This plate was subjected to static culturing at 37° C. for 24 hours under an atmosphere consisting of 95%(v/v) air and 5% (v/v) carbon dioxide gas. Using a QIAGEN™ RNA kit, whole mRNA was extracted.

[10] = tested on: amphiregulin mRNA; experiment: Test Example 7 inhibition of amphiregulin expression when used together with retinoic acid; type: cell-based, human; details: retinoic acid alone 1 μmol/L, 24 hours
Description: as §3, §4, §5, §6

[11] = tested on: dorsal skin of aged hairless mice
Description: The following test method was used in order to investigate inhibition of reduction in the epidermis thickness when the compound of the present invention was applied on aged skin.
Experimental animals used included 2 groups of aged hairless mice of 33 weeks old at the beginning of the test with each 5 mice per group, and one group of 5 hairless mice of 9 weeks old at the beginning of the test.
A sample was prepared by adding bis(diethylene glycol monoethyl ether) fumarate to a 50% ethanol aqueous solution (base) at a concentration of 0.5%. This sample was applied in an amount of 0.05 mL on the dorsal skin of hairless mice (in a diameter of approximately 2.5 cm) once a day for consecutive 5 days per week followed by 2 days interval. This schedule was repeated for 4 weeks. Subsequently, a portion of the skin was sampled and a frozen section was prepared. The thickness of the epidermis was measured by microscopic observation.

[12] = 0.5% sample 5 days pre-application, then 0.05% retinoic acid once a day for 4 days with sample in the afternoon
[13] = Table 1, concentration 1% in 50% aqueous ethanol, 0.05 mL once a day, 3rd day after UVB 0.15 J/cm^2
[14] = Table 1, concentration 1% in 50% aqueous ethanol, 4th day after UVB 0.15 J/cm^2

CCOC(=O)/C=C/C(=O)OCC [Diethyl fumarate] was tested, and the Positivity [1] was 90% and the sensitizing potential [1] was “sensitizating potential”.

In the case of COC(=O)/C=C/C(=O)OC [Dimethyl fumarate, reference compound], the “Thickness of the epidermis” value [2] is reported as 40.4 μm, the “Amount of mRNA, % relative to the control, G3PDH” value ([3]; 70 μmol/L) is reported as 98% and the “Amount of mRNA, % relative to the control, G3PDH” value ([4]; 50 μmol/L) is reported as 105%. For the same molecule, the “Mean value of TEWL” value [5, 12] was 0.063 mg/cm^2/min, the “TEWL change rate 3rd day” value [6, 13] was 3.24 and the “TEWL change rate 4th day” value [6, 14] was 2.50. For the same molecule, the “Amount of mRNA, % relative to the control, Amphiregulin” value ([7]; 70 μmol/L) was 39% and the “Amount of mRNA, % relative to the control, HB-EGF” value ([8]; 50 μmol/L) was 470%.

CC1=C(/C=C/C(C)=C/C=C/C(C)=C/C(=O)O)C(C)(C)CCC1 [Retinoic acid] was tested, and the “Amount of mRNA, % relative to the control, G3PDH” value [9] was 105%, the “Amount of mRNA, % relative to the control, Amphiregulin” value [10] was 300% and the “Mean value of TEWL” value ([5]; 0.05% retinoic acid once a day for 4 days, base alone instead of the sample (no fumarate)) was 0.110 mg/cm^2/min.

In the case of CCOCCOCCOC(=O)/C=C/C(=O)OCCOCCOCC [bis(diethylene glycol monoethyl ether) fumarate], the “Thickness of the epidermis” value [2] is reported as 61.6 μm, the “Amount of mRNA, % relative to the control, G3PDH” value ([3]; 300 μmol/L) is reported as 102% and the “Amount of mRNA, % relative to the control, G3PDH” value ([4]; 300 μmol/L) is reported as 98%. For the same molecule, the “Mean value of TEWL” value [5, 12] was 0.055 mg/cm^2/min, the “TEWL change rate 3rd day” value [6, 13] was 3.25 and the “TEWL change rate 4th day” value [6, 14] was 2.49. The “TEWL change rate 3rd day” value ([6]; Table 2, first value column, concentration 0.001%) was 7.01, the “TEWL change rate 3rd day” value ([6]; Table 2, first value column, concentration 0.01%) was 6.46 and the “TEWL change rate 3rd day” value ([6]; Table 2, first value column, concentration 0.1%) was 3.79. The “TEWL change rate 3rd day” value ([6]; Table 2, first value column, concentration 1%) was 3.62, the “TEWL change rate 3rd day” value ([6]; Table 2, second value column, concentration 0.001%) was 7.31 and the “TEWL change rate 3rd day” value ([6]; Table 2, second value column, concentration 0.01%) was 6.84. The “TEWL change rate 3rd day” value ([6]; Table 2, second value column, concentration 0.1%) was 5.21, the “TEWL change rate 3rd day” value ([6]; Table 2, second value column, concentration 1%) was 4.33 and the “amelioration of epidermal permeability barrier function” value ([6]; in words, compared to the base alone and diphenylethyl fumarate) was “clearly reduces disruption in the epidermal permeability barrier function by UVB”. The Positivity [1] was 0%, the sensitizing potential [1] was “no sensitizing potential” and the “Amount of mRNA, % relative to the control, Amphiregulin” value ([7]; 300 μmol/L) was 8%. The “Mean values of the epidermis thickness” value ([11]; 33 weeks old hairless mice, 0.5% in 50% ethanol, 0.05 mL once a day 5 days per week for 4 weeks) was 20.96 μm, the “inhibition of thinning of the epidermis due to aging” value ([11]; in words, compared to the non-treatment) was “thinning of the epidermis due to aging was clearly inhibited” and the “Amount of mRNA, % relative to the control, HB-EGF” value ([8]; 300 μmol/L) was 380%. For the same molecule, the “induction of HB-EGF expression” value ([8]; in words, 300 μmol/L) was “induced the expression of HB-EGF as strongly as dimethyl fumarate”.

For COCCOC(=O)/C=C/C(=O)OCCOC [bis(ethylene glycol monomethyl ether) fumarate], the Positivity [1] was 90% and the sensitizing potential [1] was “sensitizating potential”.

“Diphenylethyl fumarate [reference compound]” was tested, and the “TEWL change rate 3rd day” value ([6]; Table 1, concentration printed '.1I' %, 3rd day after UVB) was 7.82 and the “TEWL change rate 4th day” value ([6]; Table 1, concentration printed '.1I' %, 4th day after UVB) was 6.57.
